In patent US10266569B2 (priority 2014, dated 2019):
“Also recorded” adds a separate entry of the source.

Tests used:
[1] = test system: CDV; type: cell-based, canine distemper virus
[2] = test system: NiV (Malaysian isolate UMMC1); type: cell-based, Nipah virus
[3] = test system: NiV (Malaysian isolate UMMC1); type: cell-based, Nipah virus; remark: listed apart in the source
[4] = target: NiV N (Nipah virus, UniProt Q9IK92); type: cell-based
NiV N, sequence (Q9IK92 whole entry, looked up): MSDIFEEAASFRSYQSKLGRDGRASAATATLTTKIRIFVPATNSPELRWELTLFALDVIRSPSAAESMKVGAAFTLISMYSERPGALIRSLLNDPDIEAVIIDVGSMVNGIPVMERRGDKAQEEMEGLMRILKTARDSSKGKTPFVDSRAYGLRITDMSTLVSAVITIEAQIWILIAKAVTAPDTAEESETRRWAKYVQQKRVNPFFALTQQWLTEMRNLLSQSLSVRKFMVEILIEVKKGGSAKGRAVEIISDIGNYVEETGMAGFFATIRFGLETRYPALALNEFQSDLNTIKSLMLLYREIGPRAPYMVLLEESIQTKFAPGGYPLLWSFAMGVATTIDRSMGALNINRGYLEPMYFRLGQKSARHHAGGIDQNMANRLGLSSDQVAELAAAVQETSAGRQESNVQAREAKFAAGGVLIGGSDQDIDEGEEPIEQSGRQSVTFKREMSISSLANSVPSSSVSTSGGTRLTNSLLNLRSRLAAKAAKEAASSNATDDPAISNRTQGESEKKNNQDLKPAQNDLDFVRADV

| Sequence | dose dependence of inhibition of CDV replication [1] | inhibition of CDV viral growth (virus titer in culture supernatant) [1] | inhibition of NiV viral growth (viral titer in culture supernatant) [2] | syncytia formation in NiV-infected cells [2] | inhibition of NiV viral growth (virus titer in culture supernatant) [3] | colocalization with N in the cell [4] | maintenance of N in a soluble form [4] |
| --- | --- | --- | --- | --- | --- | --- | --- |
| MDKLELVNDGLNIIDFIQKNQKEIQKTYGRSSIQQPSIKD [P40] | dose-dependant | inhibit viral growth | significantly inhibits viral growth in a dose-dependent manner; also recorded: inhibited viral replication; also recorded: able to inhibit the replication of Nipah virus | abolishes syncytia formation | inhibit viral growth | colocalization of N with P40 | sufficient to maintain N in a soluble form |
| MAEEQAYHVSKGLECLKALRENPPDIEEIQEVSSLRDQTC [P40-CDV] | dose-dependant |  |  |  |  |  |  |
